The text below walks through data of the supplement of paper PMC9265050, “Inhibition of RNA Binding in SND1 Increases the Levels of miR-1-3p and Sensitizes Cancer Cells to Navitoclax” (Cancers, 2022).

The assay relates to SW480. The assay is described as follows: drug sensitivity score (DSS, integrated dose-response area); higher = more sensitive (stronger viability reduction); extreme values may be limits of the assay. Summed up:
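SW480 cells stably carrying doxycycline-inducible control or SND1-targeting shRNA were induced with 0.1 µg/mL doxycycline for 7 days. They were then plated at 1000 cells per well in 384-well plates holding 525 commercially available small-molecule inhibitors at five concentrations. Viability was read with CellTiter-Glo after 72 h. The drug sensitivity score integrates the area under a fitted non-linear dose–response model.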

[1] abbreviates: shRNA: SND1 shRNA1 (SND1 silenced).
The mark [2] stands for this setting: shRNA: SND1 shRNA2 (SND1 silenced).
[3] abbreviates: shRNA: control shRNA (non-targeting).

SMILES strings stand for the structures.

With `CC(C)N(CCCNC(=O)Nc1ccc(C(C)(C)C)cc1)C[C@H]1O[C@@H](n2cc(Br)c3c(N)ncnc32)[C@H](O)[C@@H]1O` [SGC0946], the drug sensitivity score was determined as 4.6 DSS under setting [1], 1.3 DSS under setting [2] and 4.3 DSS under setting [3].
`FC(F)(F)c1ccc(/C=C/c2nc(COc3ccc(CCCCn4ccnn4)cc3)co2)cc1` [Mubritinib] yielded a drug sensitivity score under setting [1] of 3.8 DSS, a drug sensitivity score under setting [2] of 9.3 DSS and a drug sensitivity score under setting [3] of 5.5 DSS.
Taken in the same sequence, the figures for `CCNc1nc(Nc2cc(F)c(C(=O)N3CCOCC3)cc2OC)ncc1C(F)(F)F` [GNE-7915] were 0 DSS, 0 DSS and 1.4 DSS.
Take `COC(=O)N[C@@H](C)CNc1nccc(-c2cn(C(C)C)nc2-c2cc(Cl)cc(NS(C)(=O)=O)c2F)n1` [Encorafenib]: the drug sensitivity score is, setting by setting: under setting [1], 0 DSS; under setting [3], 1.6 DSS.
`CCCCc1nc2cc(/C=C/C(=O)NO)ccc2n1CCN(CC)CC` [Pracinostat] came in with a drug sensitivity score under setting [1] of 21.1 DSS, a drug sensitivity score under setting [2] of 17.2 DSS and a drug sensitivity score under setting [3] of 19.3 DSS.
On the same counts, the results for `COc1cc(C(=O)NC2CCN(C)CC2)c(F)cc1Nc1ncc2c(n1)N(C1CCCC1)CC(F)(F)C(=O)N2C` [TAK-960] are 0.1 DSS, 5.4 DSS and 3.6 DSS.
In the case of `CCNC(=O)CCC/C=C\C[C@@H]1[C@@H](/C=C/[C@@H](O)CCc2ccccc2)[C@H](O)C[C@@H]1O` [Bimatoprost], the drug sensitivity score runs as follows: under setting [1], 0 DSS; under setting [2], 0 DSS; under setting [3], 0 DSS.
In the case of `COc1cccc2c1C(=O)c1c(O)c3c(c(O)c1C2=O)C[C@@](O)(C(=O)CO)C[C@@H]3O[C@H]1C[C@H](N)[C@H](O)[C@H](C)O1` [Doxorubicin], the drug sensitivity score reads like this: under setting [1], 4.5 DSS; under setting [2], 4.1 DSS; under setting [3], 4.1 DSS.
On to `S=c1[nH]cnc2nc[nH]c12` [Mercaptopurine], for which the drug sensitivity score came out at 9.7 DSS under setting [1], 5.3 DSS under setting [2] and 6.3 DSS under setting [3].
Taken in the same sequence, the figures for `COc1ccc(-c2cc3c(C)nc(N)nc3n([C@H]3CC[C@H](OCCO)CC3)c2=O)cn1` were 17.3 DSS, 13.9 DSS and 9.3 DSS.
On the same counts, the results for `CN(C)Cc1c(C(=O)NCCOc2ccc(C(=O)NO)cc2)oc2ccccc12` [Abexinostat] are 21.3 DSS, 16.4 DSS and 19.4 DSS.
Taken in the same sequence, the figures for `CN(c1ccccc1CNc1nc(Nc2ccc3c(c2)CC(=O)N3)ncc1C(F)(F)F)S(C)(=O)=O` were 9.7 DSS, 8.3 DSS and 9.2 DSS.
For the molecule `C#Cc1cccc(Nc2ncnc3cc4c(cc23)OCCOCCOCCO4)c1` [Icotinib], the drug sensitivity score worked out at 1.1 DSS under setting [1], 3.8 DSS under setting [2] and 1.1 DSS under setting [3].
In the case of `CCN1CCN(c2ccc(Nc3cc(N(C)C(=O)Nc4c(Cl)c(OC)cc(OC)c4Cl)ncn3)cc2)CC1` [NVP-BGJ398], the drug sensitivity score by setting is: under setting [1], 0 DSS; under setting [2], 0 DSS; under setting [3], 0 DSS.
Consider `CC[C@]1(O)C[C@@H]2CN(CCc3c([nH]c4ccccc34)[C@@](C(=O)OC)(c3cc4c(cc3OC)N(C)[C@H]3[C@@](O)(C(=O)OC)[C@H](OC(C)=O)[C@]5(CC)C=CCN6CC[C@]43[C@@H]65)C2)C1` [Vinblastine], for which the drug sensitivity score reads like this: under setting [1], 9.6 DSS; under setting [2], 8 DSS; under setting [3], 15.4 DSS.
Taken in the same sequence, the figures for `CC(C)Oc1ccc(C(=O)N[C@H](CNC(=O)CN(C)C)Cc2ccc(-c3cn4cccc([C@H](C)O)c4n3)cc2)cc1Cl` were 13.1 DSS, 12 DSS and 13.3 DSS.
Taken in the same sequence, the figures for `CCOc1ccn(-c2ccc(F)cc2)c(=O)c1C(=O)Nc1ccc(Oc2ccnc(N)c2Cl)c(F)c1` were 1.9 DSS, 8.3 DSS and 6.5 DSS.
Consider `Cc1[nH]c(/C=C2\C(=O)Nc3ccccc32)c(C)c1CCC(=O)O` [Orantinib], for which the drug sensitivity score runs as follows: under setting [1], 0 DSS; under setting [2], 0 DSS; under setting [3], 0.1 DSS.
Take `O=C(/C=C/c1cccnc1)NCCCCC1CCN(C(=O)c2ccccc2)CC1` [Daporinad]: the drug sensitivity score under setting [1] was 28.1 DSS and the drug sensitivity score under setting [3] amounted to 27.8 DSS.
Regarding `O=C(Nc1c[nH]nc1-c1nc2ccc(CN3CCOCC3)cc2[nH]1)NC1CC1` [AT9283], the drug sensitivity score by setting is: under setting [1], 3.6 DSS; under setting [2], 0 DSS; under setting [3], 0.6 DSS.
Taken in the same sequence, the figures for `N#Cc1ccc(C(c2ccc(C#N)cc2)n2cncn2)cc1` [Letrozole] were 0 DSS, 0 DSS and 0.1 DSS.
With `COc1ccc(-c2ccc3ncc4c(c3c2)n(-c2ccc(N3CCNCC3)c(C(F)(F)F)c2)c(=O)n4C)cn1` [NVP-BGT226], the drug sensitivity score is, setting by setting: under setting [1], 18.6 DSS; under setting [2], 20.6 DSS; under setting [3], 19 DSS.
Taken in the same sequence, the figures for `COc1cc2c(NC3CCN(C(C)C)CC3)nc(N3CCC(F)(F)CC3)nc2cc1OCCCN1CCCC1` [UNC0642] were 4.7 DSS, 8.7 DSS and 8.4 DSS.
Taken in the same sequence, the figures for `C[C@@H]1C=C2C(=O)O[C@@H]3CC[C@H](C1)[C@]23O` [Galiellalactone] were 3.8 DSS, 4.2 DSS and 3.4 DSS.
Taken in the same sequence, the figures for `CC(C)Oc1cc(Nc2nc(N[C@@H](C)c3ccc(F)cn3)ncc2Cl)n[nH]1` [AZ-23] were 3.1 DSS, 1.9 DSS and 4.5 DSS.
For `COc1ncc(-c2ccc3nccc(-c4ccnnc4)c3c2)cc1NS(=O)(=O)c1ccc(F)cc1F` [Omipalisib], the drug sensitivity score runs as follows: under setting [1], 13.7 DSS; under setting [2], 12.4 DSS; under setting [3], 9.7 DSS.
Taken in the same sequence, the figures for `CC(C)C[C@H](NC(=O)[C@H](CCc1ccccc1)NC(=O)CN1CCOCC1)C(=O)N[C@@H](Cc1ccccc1)C(=O)N[C@@H](CC(C)C)C(=O)[C@@]1(C)CO1` [Carfilzomib] were 22.9 DSS, 24.5 DSS and 24.6 DSS.
On the same counts, the results for `COc1cccc2c1C(=O)c1c(O)c3c(c(O)c1C2=O)C[C@@](O)(/C(CO)=N/NC(=O)CCCCCN1C(=O)C=CC1=O)C[C@@H]3O[C@H]1C[C@H](N)[C@H](O)[C@H](C)O1` [Aldoxorubicin] are 7.5 DSS, 5.7 DSS and 8.4 DSS.
Taken in the same sequence, the figures for `COc1cc2nccc(Oc3ccc(NC(=O)NC4CC4)c(Cl)c3)c2cc1C(N)=O` [Lenvatinib] were 1.8 DSS, 1.3 DSS and 2.1 DSS.
For the molecule `C=CC(=O)Nc1cc2c(Nc3ccc(F)c(Cl)c3)ncnc2cc1OCCCN1CCOCC1` [Canertinib], the drug sensitivity score came out at 7 DSS under setting [1], 6.2 DSS under setting [2] and 8.6 DSS under setting [3].
Taken in the same sequence, the figures for `C[C@@H]1C[C@H]2[C@@H]3CCC4=CC(=O)C=C[C@]4(C)[C@@]3(F)[C@@H](O)C[C@]2(C)[C@@]1(O)C(=O)CO` [Dexamethasone] were 0 DSS, 1.8 DSS and 1.3 DSS.
On the same counts, the results for `C[C@]1(c2nc3c(C(N)=O)cccc3[nH]2)CCCN1` [Veliparib] are 0 DSS, 0 DSS and 0 DSS.
On the same counts, the results for `CC(C)(C)c1cc(NC(=O)Nc2ccc(-c3cn4c(n3)sc3cc(OCCN5CCOCC5)ccc34)cc2)no1` [Quizartinib] are 0 DSS, 0 DSS and 0 DSS.
Take `COc1cccc2cc(-c3nc([C@H]4CC[C@H](C(=O)O)CC4)n4ncnc(N)c34)[nH]c12` [OSI-027]: the drug sensitivity score worked out at 5.4 DSS under setting [1], 7.1 DSS under setting [2] and 2.5 DSS under setting [3].
On to `CCCCCCCCCCCCCCCCCCOP(=O)([O-])OC1CC[N+](C)(C)CC1` [Perifosine], for which the drug sensitivity score is, setting by setting: under setting [1], 2.3 DSS; under setting [3], 3.7 DSS.
As to `O=C(NC1CCNCC1)c1n[nH]cc1NC(=O)c1c(Cl)cccc1Cl` [AT7519], the drug sensitivity score is, setting by setting: under setting [1], 10.7 DSS; under setting [2], 9.1 DSS; under setting [3], 14.4 DSS.
On the same counts, the results for `CNc1nc(-c2ccc3c(N)n[nH]c3c2)cc(N2C[C@@H](C(=O)NC3CCCCC3)CC[C@H]2C)n1` are 4.7 DSS, 4.2 DSS and 3.8 DSS.
Taken in the same sequence, the figures for `COc1cc(Nc2c(C#N)cnc3cc(OCCCN4CCN(C)CC4)c(OC)cc23)c(Cl)cc1Cl` [Bosutinib] were 9.2 DSS, 7.3 DSS and 8 DSS.
Turning to `Cc1cc(C(C)Nc2ccccc2)c2nc(N3CCOCC3)cc(=O)n2c1` (stereo not given) [TGX-221], the drug sensitivity score was 1.6 DSS under setting [1], 2.5 DSS under setting [2] and 0.8 DSS under setting [3].
In turn, `Nc1nc2[nH]cnc2c(=S)[nH]1` [Thioguanine] had a drug sensitivity score under setting [1] of 9.3 DSS, a drug sensitivity score under setting [2] of 5.9 DSS and a drug sensitivity score under setting [3] of 8.4 DSS.
On the same counts, the results for `CNc1nc(Nc2cn(C(C)(C)C#N)nc2C)ncc1C(F)(F)F` [GNE-0877] are 1.6 DSS, 0 DSS and 5.8 DSS.
